# Source: patent US11197933B2, “Polysubunit opioid prodrugs resistant to overdose and abuse” (Elysium Therapeutics, Inc., priority 2017, dated 2021)
# What was measured:
# trypsin [1] = biological target: T1, trypsin (Bos taurus, UniProt P00760); assay: Trypsin inhibitory potency (key differentiating attributes, Table 5); assay type: biochemical
# T1 construct: gene PRSS1
# T1 sequence (P00760 24-246): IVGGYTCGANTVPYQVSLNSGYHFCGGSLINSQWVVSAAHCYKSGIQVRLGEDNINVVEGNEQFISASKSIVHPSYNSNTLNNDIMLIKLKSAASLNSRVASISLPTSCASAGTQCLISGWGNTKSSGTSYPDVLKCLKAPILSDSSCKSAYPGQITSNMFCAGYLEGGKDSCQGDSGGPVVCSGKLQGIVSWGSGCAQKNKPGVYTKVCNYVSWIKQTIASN
# Description: (§1) As mentioned previously, a wide range of targeted oral pharmacokinetic profiles can be achieved by administering pharmaceutical compositions containing specific combinations of different polysubunit molecules to subjects. For example, the different polysubunit molecules contained in the composition may differ with regard to (i) the specific opioid agonists delivered, (ii) the rates at which the opioid agonist is delivered in vivo (i.e. to modify the oral pharmacokinetic profile of the delivered opioid), and (iii) the combined inhibitory potency of the GI enzyme inhibiting subunits [i.e. to modify the overdose protection profile and/or the prescribed dose strengths of the delivered opioid agonist(s)]. Table 5 below provides non-limiting examples of compounds of the invention with their key differentiating attributes. Table 6 discusses scenarios and rationales for using the compounds presented in Table 5 in combination with each other, in useful pharmaceutical formulations of the invention.
# trypsin [2] = biological target: T1, trypsin; assay: Inhibition of trypsin-catalyzed hydrolysis of BANA (percent BANA remaining vs. time); assay type: biochemical; settings: for Ability to inhibit trypsin (result in words): increasing concentrations, BANA substrate
# Protocol: This example describes in vitro experiments with a compound of the disclosure to provide a mechanism of overdose protection.
# The effect of increasing concentrations of compounds II-D-11, II-D-23, II-D-71c and II-D-71b on the rate and extent of the trypsin-catalyzed hydrolysis of a commercially available trypsin substrate Nα-Benzoyl-L-arginine 4-nitroanilide hydrochloride (BANA) was evaluated in the presence of trypsin (2,000 BAEE activity) in a pH 7.4 phosphate buffer at 37° C. in vitro. Both buffer solution alone (i.e. no trypsin) and trypsin containing buffer solution (i.e. no test compounds) controls were run contemporaneously.
# [3] = Rate of release of opioid agonist (key differentiating attributes, Table 5); settings: for Rate of Release of Opioid Against: in words (Fast/Slow); for half-life: read-out: Rate of Release of Opioid Against: T1/2
# Description: as §1
# [4] = after oral doses; cited from earlier work
# [5] = in man; cited from earlier work
smiles,measurement,setting,value
COc1ccc2c3c1O[C@H]1C(OC(=O)N4CCC(C(=O)NCCCC[C@H](NC(=O)OCc5ccccc5)C(=O)NCCOc5ccc(C(=O)Oc6cccc(NC(=N)N)c6)cc5)CC4CNC(=O)[C@@H](CCCNC(=N)N)NC(=O)CNC(C)=O)=CC[C@H]4[C@@H](C2)N(C)CC[C@]314 (stereo partly drawn) [II-D-71b],Trypsin Inhibitory Potency,trypsin [1],Low
same,Percent BANA remaining,"trypsin [2]; compound 10 uM, 2 minutes, trypsin 2,000 BAEE activity, pH 7.4 phosphate buffer, 37° C.",87.9%
same,Percent BANA remaining,"trypsin [2]; compound 10 uM, 13 minutes, trypsin 2,000 BAEE activity, pH 7.4 phosphate buffer, 37° C.",0%
same,Percent BANA remaining,"trypsin [2]; compound 10 uM, 24 minutes, trypsin 2,000 BAEE activity, pH 7.4 phosphate buffer, 37° C.",0%
same,Percent BANA remaining,"trypsin [2]; compound 10 uM, 35 minutes, trypsin 2,000 BAEE activity, pH 7.4 phosphate buffer, 37° C.",0%
same,Percent BANA remaining,"trypsin [2]; compound 10 uM, 46 minutes, trypsin 2,000 BAEE activity, pH 7.4 phosphate buffer, 37° C.",0%
same,Percent BANA remaining,"trypsin [2]; compound 10 uM, 57 minutes, trypsin 2,000 BAEE activity, pH 7.4 phosphate buffer, 37° C.",0%
same,Percent BANA remaining,"trypsin [2]; compound 10 uM, 68 minutes, trypsin 2,000 BAEE activity, pH 7.4 phosphate buffer, 37° C.",0%
same,Percent BANA remaining,"trypsin [2]; compound 100 uM, 2 minutes, trypsin 2,000 BAEE activity, pH 7.4 phosphate buffer, 37° C.",93.1%
same,Percent BANA remaining,"trypsin [2]; compound 100 uM, 13 minutes, trypsin 2,000 BAEE activity, pH 7.4 phosphate buffer, 37° C.",15.1%
same,Percent BANA remaining,"trypsin [2]; compound 100 uM, 24 minutes, trypsin 2,000 BAEE activity, pH 7.4 phosphate buffer, 37° C.",2.4%
same,Percent BANA remaining,"trypsin [2]; compound 100 uM, 35 minutes, trypsin 2,000 BAEE activity, pH 7.4 phosphate buffer, 37° C.",2.3%
same,Percent BANA remaining,"trypsin [2]; compound 100 uM, 46 minutes, trypsin 2,000 BAEE activity, pH 7.4 phosphate buffer, 37° C.",1.4%
same,Percent BANA remaining,"trypsin [2]; compound 100 uM, 57 minutes, trypsin 2,000 BAEE activity, pH 7.4 phosphate buffer, 37° C.",0%
same,Percent BANA remaining,"trypsin [2]; compound 100 uM, 68 minutes, trypsin 2,000 BAEE activity, pH 7.4 phosphate buffer, 37° C.",0%
same,Percent BANA remaining,"trypsin [2]; compound 1 mM, 2 minutes, trypsin 2,000 BAEE activity, pH 7.4 phosphate buffer, 37° C.",100%
same,Percent BANA remaining,"trypsin [2]; compound 1 mM, 13 minutes, trypsin 2,000 BAEE activity, pH 7.4 phosphate buffer, 37° C.",76.1%
same,Percent BANA remaining,"trypsin [2]; compound 1 mM, 24 minutes, trypsin 2,000 BAEE activity, pH 7.4 phosphate buffer, 37° C.",66.6%
same,Percent BANA remaining,"trypsin [2]; compound 1 mM, 35 minutes, trypsin 2,000 BAEE activity, pH 7.4 phosphate buffer, 37° C.",59.6%
same,Percent BANA remaining,"trypsin [2]; compound 1 mM, 46 minutes, trypsin 2,000 BAEE activity, pH 7.4 phosphate buffer, 37° C.",56.3%
same,Percent BANA remaining,"trypsin [2]; compound 1 mM, 57 minutes, trypsin 2,000 BAEE activity, pH 7.4 phosphate buffer, 37° C.",55.7%
same,Percent BANA remaining,"trypsin [2]; compound 1 mM, 68 minutes, trypsin 2,000 BAEE activity, pH 7.4 phosphate buffer, 37° C.",53.7%
same,Ability to inhibit trypsin (result in words),"trypsin [2]; pH 7.4, 37° C.",progressively inhibit trypsin in a concentration dependent manner
same,Rate of Release of Opioid Against,[3],Fast
same,half-life,[3],~10 min
COc1ccc2c3c1O[C@H]1C(OC(=O)N4CCC(C(=O)NCCCC[C@H](NC(=O)OCc5ccccc5)C(=O)NCCOc5ccc(C(=O)Oc6ccc(NC(=N)N)cc6)cc5)CC4CNC(=O)[C@@H](CCCNC(=N)N)NC(=O)CNC(C)=O)=CC[C@H]4[C@@H](C2)N(C)CC[C@]314 (stereo partly drawn) [II-D-71c],Trypsin Inhibitory Potency,trypsin [1],High
same,Percent BANA remaining,"trypsin [2]; 1 uM compound, 2 minutes, pH 7.4, 37° C.",81.5%
same,Percent BANA remaining,"trypsin [2]; 1 uM compound, 13 minutes, pH 7.4, 37° C.",0%
same,Percent BANA remaining,"trypsin [2]; 1 uM compound, 24 minutes, pH 7.4, 37° C.",0%
same,Percent BANA remaining,"trypsin [2]; 1 uM compound, 35 minutes, pH 7.4, 37° C.",0%
same,Percent BANA remaining,"trypsin [2]; 1 uM compound, 46 minutes, pH 7.4, 37° C.",0%
same,Percent BANA remaining,"trypsin [2]; 1 uM compound, 57 minutes, pH 7.4, 37° C.",0%
same,Percent BANA remaining,"trypsin [2]; 1 uM compound, 68 minutes, pH 7.4, 37° C.",0%
same,Percent BANA remaining,"trypsin [2]; 10 uM compound, 2 minutes, pH 7.4, 37° C.",76.5%
same,Percent BANA remaining,"trypsin [2]; 10 uM compound, 13 minutes, pH 7.4, 37° C.",58.5%
same,Percent BANA remaining,"trypsin [2]; 10 uM compound, 24 minutes, pH 7.4, 37° C.",42.5%
same,Percent BANA remaining,"trypsin [2]; 10 uM compound, 35 minutes, pH 7.4, 37° C.",26.0%
same,Percent BANA remaining,"trypsin [2]; 10 uM compound, 46 minutes, pH 7.4, 37° C.",13.0%
same,Percent BANA remaining,"trypsin [2]; 10 uM compound, 57 minutes, pH 7.4, 37° C.",4.7%
same,Percent BANA remaining,"trypsin [2]; 10 uM compound, 68 minutes, pH 7.4, 37° C.",0%
same,Percent BANA remaining,"trypsin [2]; 100 uM compound, 2 minutes, pH 7.4, 37° C.",100%
same,Percent BANA remaining,"trypsin [2]; 100 uM compound, 13 minutes, pH 7.4, 37° C.",100%
same,Percent BANA remaining,"trypsin [2]; 100 uM compound, 24 minutes, pH 7.4, 37° C.",99%
same,Percent BANA remaining,"trypsin [2]; 100 uM compound, 35 minutes, pH 7.4, 37° C.",100%
same,Percent BANA remaining,"trypsin [2]; 100 uM compound, 46 minutes, pH 7.4, 37° C.",100%
same,Percent BANA remaining,"trypsin [2]; 100 uM compound, 57 minutes, pH 7.4, 37° C.",100%
same,Percent BANA remaining,"trypsin [2]; 100 uM compound, 68 minutes, pH 7.4, 37° C.",100%
same,Percent BANA remaining,"trypsin [2]; 1 mM compound, 2 minutes, pH 7.4, 37° C.",100%
same,Percent BANA remaining,"trypsin [2]; 1 mM compound, 13 minutes, pH 7.4, 37° C.",100%
same,Percent BANA remaining,"trypsin [2]; 1 mM compound, 24 minutes, pH 7.4, 37° C.",99%
same,Percent BANA remaining,"trypsin [2]; 1 mM compound, 35 minutes, pH 7.4, 37° C.",100%
same,Percent BANA remaining,"trypsin [2]; 1 mM compound, 46 minutes, pH 7.4, 37° C.",100%
same,Percent BANA remaining,"trypsin [2]; 1 mM compound, 57 minutes, pH 7.4, 37° C.",100%
same,Percent BANA remaining,"trypsin [2]; 1 mM compound, 68 minutes, pH 7.4, 37° C.",100%
same,Ability to inhibit trypsin (result in words),"trypsin [2]; pH 7.4, 37° C.",progressively inhibit trypsin in a concentration dependent manner
same,Rate of Release of Opioid Against,[3],Fast
same,half-life,[3],~10 min
C[C@H]1[C@H]2Cc3ccc(O)cc3[C@]1(C)CCN2CC1CC1 [cyclazocine],Duration of action,[4],~24 h
"O=C1CC[C@@]2(O)[C@H]3Cc4ccc(O)c5c4[C@@]2(CCN3CC2CC2)[C@H]1O5 [naltrexone, Naltrexone]",Duration of action,[4],~24 h
same,Oral bioavailability,[5],5-40%
